Source: US9346741B2, “Polyamine transport selective therapeutic agents with enhanced stability” (University of Central Florida Research Foundation, Inc., priority 2012, dated 2016)
“Also recorded” adds a separate entry of the source. Where two headings read alike, the source gives them in different places.

Legend:
CHO-MG* cells = assay: Cytotoxicity IC50 determination (MTS) in polyamine-transport-deficient CHO-MG* cells; type: cell-based, Chinese hamster; conditions: 48 h at 37° C.
From the text: (§1) CHO cells were chosen along with a mutant cell line (CHO-MG*) to comment on how the synthetic conjugates gain access to the cells.^2c-e, 6 As discussed earlier, the CHO-MG cell line is polyamine-transport deficient and represents a model for alternative modes of entry (other than PTS) including passive diffusion or use of another transporter. The CHO cell line on the other hand, represents cells with high polyamine transport activity.^7, 10c A comparison of toxicity in these two CHO cell lines allowed for a screen that would detect selective use of the polyamine transporter. This is seen where high utilization of the PTS would be very toxic to CHO cells, however, there would not be the same level of toxicity found in CHO-MG cells.^2c-e, 6 Ultimately, a CHO-MG/CHO IC50 can be determined where a high ratio would be achieved for highly PTS selective compounds.
(§2) CHO and CHO-MG cells were grown in RPMI 1640 medium supplemented with 10% fetal calf serum and 1% penicillin/streptomycin. Note: the media must contain L-proline (2 μg/mL) for proper growth of the CHO-MG cells. MALME-3M cells were grown in RPMI 1640 medium supplemented with 10% FBS and 1% penicillin/streptomycin. […] Cells in early to mid-log phase were used.
(§3) Cell growth was assayed in sterile 96-well microtiter plates (Costar 3599, Corning, N.Y., USA). CHO and CHO-MG* cells were plated at 10,000 cells/mL. MALME-3M and MALME-3 cells were plated at 5,000 cells/mL. Drug solutions (10 μL per well) of appropriate concentration were added after an overnight incubation for each CHO cell line (90 μL). 48 h MALME-3M experiments were conducted using 10% Nu-Serum IV, and 96 h MALME-3M and MALME-3 experiments were conducted using 10% FBS. After exposure to the drug for 48 h (CHO, CHO-MG*, and MALME-3M) or 96 h (MALME-3M and MALME-3), cell growth was determined by measuring formazan
(§4) formation from 3-(4,5-dimethylthiazol-2-yl)-5-(3-carboxymethoxyphenyl)-2-(4-sulphenyl)-2H-tetrazolium) inner salt (MTS) using a SynergyMx Biotek microplate reader for absorbance ([…]) measurements.^24

CHO cells = assay: in vitro; type: cell-based; conditions: for IC50: 48 h at 37° C.
From the text: as §1, §2, §3, §4

[1] = system: polyamine transport system (PTS), CHO-MG* vs CHO cells; assay: CHO-MG*/CHO IC50 ratio, a measure of PTS selectivity; type: cell-based, Chinese hamster; conditions: 48 h; for IC50 ratio w/AG (CHO-MG*/CHO): with 1 mM AG; for IC50 ratio w/o AG (CHO-MG*/CHO): without AG
From the text: Compounds with high CHO-MG/CHO IC50 ratios are considered PTS selective.
as §1

MALME-3 cells = assay: Cytotoxicity IC50 determination (MTS) in MALME-3 cells; type: cell-based, human; conditions: for IC50: 96 h at 37° C., 1 mM AG, 10% FBS
Method: (§5) Armed with this insight, compounds 5a-8b were evaluated in the MALME-3M (melanoma) cell line and its non-cancerous counterpart MALME-3 obtained originally from the same patient. These matched cell lines provided a method to assess PTS selectivity for the cancer line (MALME-3M) over the non-cancerous cell line (MALME-3).
(§6) CHO and CHO-MG cells were grown in RPMI 1640 medium supplemented with 10% fetal calf serum and 1% penicillin/streptomycin. Note: the media must contain L-proline (2 μg/mL) for proper growth of the CHO-MG cells. MALME-3M cells were grown in RPMI 1640 medium supplemented with 10% FBS and 1% penicillin/streptomycin. All cells were grown at 37° C. under a humidified 5% CO2 atmosphere Aminoguanidine (1 mM) was added to the growth medium to prevent oxidation of the drugs by the enzyme (bovine serum amine oxidase) present in calf serum. Cells in early to mid-log phase were used.
as §3, §4

MALME-3M cells = assay: Cytotoxicity IC50 determination (MTS) in MALME-3M cells; type: cell-based, human
Method: as §5, with “(MALME-3). […]” for “(MALME-3).”
as §6, §3, §4

[2] = system: MALME-3M (melanoma) vs MALME-3 (normal) cells; assay: MALME-3/MALME-3M IC50 ratio, a measure of selectivity; type: cell-based, human; conditions: 96 h; 1 mM AG
From the text: These matched cell lines provided a method to assess PTS selectivity for the cancer line (MALME-3M) over the non-cancerous cell line (MALME-3).

[3] = system: polyamine transport system (PTS) in L1210 cells; conditions: cited from earlier work
[4] = system: 60 human cancer cell lines; assay: NCI 60 cell-line screen; type: cell-based; conditions: 48 h; for effect on breast cancer cell lines in the NCI 60 cell-line screen / effect on melanoma cell lines in the NCI 60 cell-line screen: 10 μM
Method: Once compounds 6a-b, 7a-b, and 8a-8b were evaluated in CHO and CHO-MG*, these compounds were sent to the National Cancer institute (NCI) to conduct its 60 cell-line screen to determine if these compounds could also be potent anti-cancer agents for human cancer cell lines. […] As shown in FIGS. 2A-2C, dose response curves were generated based upon the 60 cell-line screen at different molar concentrations of each PTS targeting agent 6b, 7b, and 8b.
To generate FIGS. 2A-2C, the respective drug was dosed at 10 μM into each human cancer cell line and cell viability was assessed after a 48 h incubation at 37° C. in an environment of 5% CO2, 95% air and 100% relative humidity. A more descriptive methodology can be found at the NCI website: http://dtp.nci.nih.gov/branches/btb/ivclsp.html. Cell lines which gave bar graphs which extend to the right of the central line were more sensitive to the drug than cell lines which extended to the left of the center line.

[5] = system: 60 human cancer cell lines; assay: NCI 60 cell-line screen; type: cell-based; conditions: 5-dose assay
[6] = 1 mM AG 24 h prior to drug addition, read-out: CHO-MG* IC50 (μM) w/AG
[7] = without AG, read-out: CHO-MG* IC50 (μM) w/o AG
[8] = 1 mM AG 24 h prior to drug addition, read-out: CHO IC50 (μM) w/AG
[9] = without AG, read-out: CHO IC50 (μM) w/o AG
[10] = 48 h at 37° C., 1 mM AG, 10% Nu-Serum IV, read-out: MALME-3M IC50 (μM) w/ AG
[11] = 48 h at 37° C., without AG, 10% Nu-Serum IV, read-out: MALME-3M IC50 (μM) w/o AG
[12] = 96 h at 37° C., 1 mM AG, 10% FBS, read-out: MALME-3M IC50
[13] = Cricetulus griseus, CHO-MG, 1 mM AG 24 h prior to drug addition, read-out: CHO-MG* IC50 (μM) w/AG
[14] = Cricetulus griseus, CHO-MG, without AG, read-out: CHO-MG* IC50 (μM) w/o AG
[15] = Cricetulus griseus, CHO, 1 mM AG 24 h prior to drug addition, read-out: CHO IC50 (μM) w/AG
[16] = Cricetulus griseus, CHO, without AG, read-out: CHO IC50 (μM) w/o AG
[17] = Homo sapiens, Malme-3M, 48 h at 37° C., 1 mM AG, 10% Nu-Serum IV, read-out: MALME-3M IC50 (μM) w/ AG
[18] = Homo sapiens, Malme-3M, 48 h at 37° C., without AG, 10% Nu-Serum IV, read-out: MALME-3M IC50 (μM) w/o AG
[19] = Homo sapiens, Malme-3M, 96 h at 37° C., 1 mM AG, 10% FBS, read-out: MALME-3M IC50

| Structure (SMILES) | IC50 (CHO-MG* cells; [6]) | IC50 (CHO-MG* cells; [7]) | IC50 (CHO cells; [8]) | IC50 (CHO cells; [9]) | IC50 ratio w/AG (CHO-MG*/CHO) [1] | IC50 ratio w/o AG (CHO-MG*/CHO) [1] | IC50 (MALME-3 cells) | IC50 (MALME-3M cells; [10]) | IC50 (MALME-3M cells; [11]) | IC50 (MALME-3M cells; [12]) | MALME-3/MALME-3M IC50 ratio [2] | Ki ([3]; read-out: Ki in L1210 cells) | also measured |
| --- | --- | --- | --- | --- | --- | --- | --- | --- | --- | --- | --- | --- | --- |
| CNCCCCNCCCCNCc1c2ccccc2cc2ccccc12 [Compound 5b] | 10.7 µM | 11.3 µM | 2.8 µM | 2.1 µM | 3.8 | 5.4 | 620 nM | 0.6 µM | 0.62 µM | 0.45 µM | 1.4 |  |  |
| NCCCCNCCCCNCc1c2ccccc2c(CNCCCCNCCCCN)c2ccccc12 [Compound 6a] | > 100 µM | 8.4 µM | 0.028 µM | 4 µM | >3571 | 2.1 | 690 nM | 0.088 µM | 0.29 µM | 0.017 µM | 41 | 390 nM |  |
| NCCCCNCCCCNCc1ccc(CNCCCCNCCCCN)c2ccccc12 [Compound 7a] | > 100 µM | 52.1 µM | 0.022 µM | 5.5 µM | >4545 | 9.5 | 1270 nM | 0.043 µM | 0.43 µM | 0.018 µM | 71 | 170 nM |  |
| CNCCCCNCCCCNCc1ccc(CNCCCCNCCCCNC)c2ccccc12 [Compound 7b, N1,N1′-(Naphthalene-1,4-diylbis(methylene))bis(N4-(4-(methylamino)butyl)butane-1,4-diamine)] |  |  |  |  | >2272 | >2564 |  |  |  |  | 59 |  | IC50 (CHO-MG* cells; [13]): > 100 µM; IC50 (CHO-MG* cells; [14]): > 100 µM; IC50 (CHO cells; [15]): 0.044 µM; IC50 (CHO cells; [16]): 0.039 µM; IC50 (MALME-3 cells; Homo sapiens, MALME-3): 820 nM; IC50 (MALME-3M cells; [17]): 0.1 µM; IC50 (MALME-3M cells; [18]): 0.17 µM; IC50 (MALME-3M cells; [19]): 0.014 µM; effect on breast cancer cell lines in the NCI 60 cell-line screen [4]: exhibited an anti-proliferation effect in breast cancer cell lines, particularly the T-47D cell line; effect on melanoma cell lines in the NCI 60 cell-line screen [4]: inhibited the proliferation of melanoma cell lines, particularly the MALME-3M cell line; NCI 5-dose assay, MALME-3M cell line [5]: dose dependent response |
| N=C(N)NN [AG, aminoguanidine, reference compound] |  |  |  |  |  |  |  |  |  |  |  |  | toxicity of 1 mM AG in MALME-3 cells (MALME-3 cells; 1 mM): ^b1 mM AG was determined to be non-toxic and incubated with MALME-3M and MALME-3 cells for 24 h prior to drug addition.; toxicity of 1 mM AG in MALME-3M cells (MALME-3M cells; 1 mM): ^b1 mM AG was determined to be non-toxic and incubated with MALME-3M and MALME-3 cells for 24 h prior to drug addition; also recorded: ^b1 mM AG was determined to be non-toxic and incubated with MALME-3M cells for 24 h prior to drug addition |
| NCCCCNCCCCNCc1cc(CNCCCCNCCCCN)cc(CNCCCCNCCCCN)c1 [Compound 32, reference compound] |  |  |  |  | 1 |  |  |  |  |  |  |  | IC50 (CHO-MG* cells; Cricetulus griseus, CHO-MG, Table 4, 1 mM AG 24 h prior to drug addition, read-out: CHO-MG* IC50): > 100 µM; fold less toxic than 34a in the CHO cell line (CHO cells; CHO, versus 34a): > 3500 fold; IC50 (CHO cells; Cricetulus griseus, CHO, Table 4, 1 mM AG 24 h prior to drug addition, read-out: CHO IC50): > 100 µM; MTD (μM) in CHO (maximum tolerated dose) (CHO cells; hamster): 80 µM; Ki ([3]; unit inferred, read-out: Ki values in L1210 cells): 520 ± 110 nM |
| CNCCCCNCCCCNCc1c2ccccc2c(CNCCCCNCCCCNC)c2ccccc12 [Compound 6b, N1,N1′-(Anthracene-9,10-diylbis(methylene))bis(N4-(4-(methylamino)butyl)butane-1,4-diamine)] |  |  |  |  | >1204 | >1190 |  |  |  |  | 16 |  | IC50 (CHO-MG* cells; [13]): > 100 µM; IC50 (CHO-MG* cells; [14]): > 100 µM; IC50 (CHO cells; [15]): 0.083 µM; IC50 (CHO cells; [16]): 0.084 µM; IC50 (MALME-3 cells; Homo sapiens, MALME-3): 1000 nM; IC50 (MALME-3M cells; [17]): 0.13 µM; IC50 (MALME-3M cells; [18]): 0.16 µM; IC50 (MALME-3M cells; [19]): 0.062 µM; effect on breast cancer cell lines in the NCI 60 cell-line screen [4]: exhibited an anti-proliferation effect in breast cancer cell lines, particularly the T-47D cell line; effect on melanoma cell lines in the NCI 60 cell-line screen [4]: inhibited the proliferation of melanoma cell lines, particularly the MALME-3M cell line; NCI 60 cell-line screen, overall result ([4]; no AG): cell-targeting specificity, especially for the MALME-3M cell line; NCI 5-dose assay, MALME-3M cell line [5]: dose dependent response |
| NCCCCNCCCN [Spermidine, spermidine, reference compound] |  |  |  |  |  |  |  |  |  |  |  | 2460 nM | non-toxic concentration in MALME-3 (MALME-3 cells; spermidine alone): up to 100 μM; non-toxic concentration in MALME-3M (MALME-3M cells; spermidine alone): up to 100 μM |
